Results reported in patent publication US6297250A, “Pyrimidopyrimidine compounds” (Newcastle University Ventures Limited, priority 1997, dated 2001).
Several values for one entry are separate records, joined by “and”; a condition that tells them apart may be missing. Identical values can stand only once. Like-named read-outs stand apart in the source and are kept apart here.

Assays:
MCF7 [1] = settings: earlier experiments; cited from earlier work
A549 [2] = settings: earlier experiments; cited from earlier work
MCF7 [3] = assay: Prevention of hypoxanthine rescue from antifolate growth inhibition (sulphorhodamine B); type: cell-based; settings: 3 μM NU3076, 10 μM hypoxanthine
Description: (§1) For example, in investigating the compound NU3076, two lung cancer cell lines: A549 and COR L23 and two breast cancer cell lines MCF7 and MDA MB231 were selected for study. All cell lines were adapted to growth in dialysed serum as previously referred to. […] Cells were exposed to varying concentrations of LY309887 in the presence or absence of 10 μM hypoxanthine, with or without 3 μM NU3076. At the end of the exposure period the cells were fixed and stained with sulphorhodamine B. Hypoxanthine protected all the cell lines from LY309887 growth inhibition.

A549 [4] = assay: as above; type: cell-based; settings: 3 μM NU3076, 10 μM hypoxanthine
Description: as §1

L1210 cells = assay: Nucleoside transport inhibition assay: inhibition of 3H-thymidine uptake, with or without AGP or HSA; type: cell-based, murine; settings: for inhibition at 1 µM: L1210, 1 μM compound; for inhibition at 10 µM: L1210, 10 μM compound; for inhibition at 50 µM: L1210, 50 μM compound; for % Inhibition of 3H-thymidine uptake, +5 mg/ml AGP: compound concentration not assignable from the table; for inhibition at 0.1 µM: L1210, 0.1 μM compound; for inhibition at 100 µM: L1210, 100 μM compound
Description: In vitro activity. […] For testing the compounds an established nucleoside transport assay involving measurement of thymidine uptake was adapted. Murine leukaemia L1210 cells were used in this assay as their nucleoside transport characteristics are well known. This assay for measuring thymidine uptake used a modification of the rapid mixing technique of Wohleheuter, R. […] Materials used included a transport buffer comprising 130 mM NaCl, 5 mM KC1, 1 mM MgCl, 5 mM NaH2 PO4, 10 mM glucose and 10 mM HEPES. This buffer was made up as sterile 5× concentrate and reconstituted in distilled water and adjusted to pH 7.4 immediately prior to carrying out the assay. […] The supernatant was aspirated and the cells were washed with ice-cold transport buffer and centrifuged again at 1000 rpm for 5 minutes at 4° C. The supernatant was removed and the cells were resuspended in ice-cold transport buffer to give a final cell density of 2-4×10^7 cells/mi. Cells were left on ice for 30 minutes recovery prior to starting the assay. […] The suspension was mixed well and 100 μl was layered onto 150 μl silicone oil (9:11 Dow Corning 556 (Sp.Gr. 0.98):Dow Corning 550 (Sp.Gr. 1.068) (final Sp.Gr. 1.028) overlaying 50 μl 3M KOH in 6 replicate 0.5 ml microfuge tubes. […] The tubes were immediately transferred to a microfuge (Eppendorf) and spun at 12000 rpm for 2 minutes to pellet the cells through the oil and into the KOH. The tubes were capped and the cells left to solubilise in the KOH for 1 hour. Cell number and viability for each run was determined by haemocytometer counting using trypan blue exclusion. […] The tubes were capped and cut in the oil layer such that the bottom portion (cells solubilised in KOH) fell into a 20 ml scintillation vial. 1 ml 0.25M acetic acid followed by 1 ml air was injected into the tube using a 2 ml syringe and 23-gauge needle to disperse and neutralise the KOH-solubilisedcells. 10 ml of Optiphase HiSafe™ scintillant was added and the vials capped and shaken. […] The [^14 C]:[^3 H] ratio was used to calculate the amount of non-transported contaminating [^3 H]thymidine in the extracellular space.

[5] = Mus musculus, +5 mg/ml AGP vs no AGP, read-out: % Reduction (of inhibition by AGP)
[6] = Mus musculus, +5 mg/ml AGP, read-out: % Inhibition of 3H-thymidine uptake, +5 mg/ml AGP
[7] = Mus musculus, no AGP, read-out: % Inhibition of 3H-thymidine uptake, No AGP
[8] = 50 μM compound, no AGP, 5% DMSO, 50 µM
[9] = Mus musculus, no AGP, 5% DMSO, read-out: % Inhibition of 3H-thymidine uptake, No AGP (5% DMSO)

OCCN(CCO)c1nc(N2CCCCC2)c2nc(N(CCO)CCO)nc(N3CCCCC3)c2n1 [NU3003, 2,6-bis(diethanolamino)-4,8-dipiperidinopyrimidopyrimidine, reference compound]
Block of hypoxanthine rescue from lometerxol growth inhibition (MCF7 [1]): blocked hypoxantine rescue
Block of hypoxanthine rescue from lometerxol growth inhibition (A549 [2]): blocked hypoxantine rescue

COc1ccc(CNc2nc(N(CCO)CCO)nc3c(NCc4ccc(OC)cc4)nc(N(CCO)CCO)nc23)cc1 [NU3076, 2,6-bis (Diethanolamino)-4,8-di[(4'-methoxybenzyl)amino]pyrimidopyrimidine]
Prevention of hypoxanthine rescue from LY309887 growth inhibition (MCF7 [3]): prevented hypoxanthine rescue
Prevention of hypoxanthine rescue from LY309887 growth inhibition (A549 [4]): prevented hypoxanthine rescue
% Inhibition of 3H-thymidine uptake, No AGP (L1210 cells; 1 μM compound, no AGP, 1 µM): 56 ± 10%
% Inhibition of 3H-thymidine uptake, +40 mg/ml HSA (L1210 cells; 3 h): 89 ± 10%
inhibition at 1 µM (L1210 cells; [5]): 18%
inhibition at 1 µM (L1210 cells; [6]): 46 ± 8%
inhibition at 1 µM (L1210 cells; [7]): 65 ± 11%
inhibition at 10 µM (L1210 cells; [5]): 7%
inhibition at 10 µM (L1210 cells; [6]): 89 ± 14%
inhibition at 10 µM (L1210 cells; [7]): 96 ± 8%
IC50 (L1210 cells; Mus musculus, L1210, no AGP): 253 ± 75 nM
Effect of AGP on the inhibition of thymidine uptake (L1210 cells; in words): no significant reduction
Potency as inhibitor relative to dipyridamole (L1210 cells; presence and absence of AGP, or of 40 mg/ml human serum albumin): more potent inhibitors than dipyridamole

COc1nc(N2CCCCC2)c2nc(OC)nc(N3CCCCC3)c2n1 [NU3067, 2,6-Dimethoxy-4,8-dipiperidinopyrimidopyrimidine]
% Inhibition of 3H-thymidine uptake, No AGP (5% DMSO) (L1210 cells; [8]): 76%
inhibition at 10 µM (L1210 cells; [9]): 39 ± 7%
inhibition at 50 µM (L1210 cells; Mus musculus, no AGP, 5% DMSO): 81%

CN(Cc1ccccc1)c1nc(OCCO)nc2c(N(C)Cc3ccccc3)nc(OCCO)nc12 [NU3103, 2,6-Di-(2-hydroxyethoxy)-4,8-di-(N-benzyl-N-methyl)aminopyrimidopyrimidine]
% Inhibition of 3H-thymidine uptake, No AGP (L1210 cells; 0.1 μM compound, no AGP, 0.1 µM): 18%
% Inhibition of 3H-thymidine uptake, No AGP (L1210 cells; 1 μM compound, no AGP, 1 µM): 50% and 60%
% Inhibition of 3H-thymidine uptake, No AGP (L1210 cells; 10 μM compound, no AGP, 10 µM): 84%
% Inhibition of 3H-thymidine uptake, +5 mg/ml AGP (L1210 cells; +5 mg/ml AGP): 21% and 23%
inhibition at 0.1 µM (L1210 cells; Mus musculus, no AGP): 12%
inhibition at 10 µM (L1210 cells; [7]): 90%
IC50 (L1210 cells; no AGP): 1010 nM and 800 nM

OCCN(CCO)c1nc(NCc2ccc(Cl)cc2)c2nc(N(CCO)CCO)nc(NCc3ccc(Cl)cc3)c2n1 [NU3083, 2,6-bis(Diethanolamino)-4,8-di[(4'-chlorobenzyl)amino]pyrimido pyrimidine]
inhibition at 1 µM (L1210 cells; [7]): 53 ± 15%
inhibition at 10 µM (L1210 cells; [7]): 92 ± 14%
IC50 (L1210 cells; Mus musculus, L1210, no AGP): 1110 nM

COc1ccc(CN(C)c2nc(OCCCO)nc3c(N(C)Cc4ccc(OC)cc4)nc(OCCCO)nc23)cc1 [NU3100, 2,6-Di-(3-hydroxypropoxy)-4,8-di-(N-[4-methoxybenzyl]-N-methyl)aminopyrimidopyrimidine]
inhibition at 1 µM (L1210 cells; [7]): 88%
IC50 (L1210 cells; Mus musculus, L1210, no AGP): 190 nM

COc1ccc(CNc2nc(NCCO)nc3c(NCc4ccc(OC)cc4)nc(NCCO)nc23)cc1 [NU3099, 2,6-Di-(2-hydroxyethyl)amino-4,8-di-[4-methoxybenzyl]-aminopyrimidopyrimidine]
% Inhibition of 3H-thymidine uptake, No AGP (L1210 cells; 1 μM compound, no AGP, 1 µM): 52% and 62% and 65%
% Inhibition of 3H-thymidine uptake, +5 mg/ml AGP (L1210 cells; +5 mg/ml AGP): 30% and 35%
inhibition at 0.1 µM (L1210 cells; Mus musculus, no AGP): 5%
inhibition at 1 µM (L1210 cells; [7]): 54%
IC50 (L1210 cells; Mus musculus, L1210, no AGP): 930 nM
IC50 (L1210 cells; no AGP): 1200 nM

COCCOc1nc(NCc2ccccc2)c2nc(OCCOC)nc(NCc3ccccc3)c2n1 [NU3095, 2,6-di(-2-methoxyethoxy)-4,8-dibenzylaminopyrimidopyrimidine]
inhibition at 1 µM (L1210 cells; [7]): 31.2%
inhibition at 10 µM (L1210 cells; [7]): 78.4 ± 4.2%
IC50 (L1210 cells; Mus musculus, L1210, no AGP): 2400 nM

OCCNc1nc(NCc2ccccc2)c2nc(NCCO)nc(NCc3ccccc3)c2n1 [NU3101, 2,6-Di-(2-hydroxyethylamino)-4,8-dibenzylaminopyrimidopyrimidine]
inhibition at 0.1 µM (L1210 cells; Mus musculus, no AGP): 2%
inhibition at 1 µM (L1210 cells; [7]): 58%

CCCOc1nc(N(C)Cc2ccccc2)c2nc(OCCC)nc(N(C)Cc3ccccc3)c2n1 [NU3091, 2,6-Di(n)propoxy-4,8-di[(N-benzylmethyl)amino]-pyrimidopyrimidine]
% Inhibition of 3H-thymidine uptake, No AGP (L1210 cells; 1 μM compound, no AGP): Inactive
inhibition at 10 µM (L1210 cells; [7]): 8.2 ± 1.1%

OCCN(CCO)c1nc(N2CCc3ccccc3C2)c2nc(Cl)nc(N3CCc4ccccc4C3)c2n1 [NU3082, 2-Chloro-6-diethanolamino-4,8-di-(N-1,2,3,4-tetrahydroisoguinolyl)pyrimidopyrimidine]
% Inhibition of 3H-thymidine uptake, No AGP (L1210 cells; 1 μM compound, no AGP, 1 µM): 9% and 0%
inhibition at 10 µM (L1210 cells; [7]): 22 ± 14%

CC(C)COc1nc(N2CCCCC2)c2nc(OCC(C)C)nc(N3CCCCC3)c2n1 [NU3071, 2,6-Di-(2'-methylpropoxy)-4,8-dipiperidinopyrimidopyrimidine]
inhibition at 10 µM (L1210 cells; [9]): 25 ± 4%
inhibition at 100 µM (L1210 cells; [9]): 65 ± 4%

C=CCOc1nc(N2CCCCC2)c2nc(OCC=C)nc(N3CCCCC3)c2n1 [NU3072, 2,6-Di-allyloxy-4,8-dipiperidinopyrimidopyrimidine]
% Inhibition of 3H-thymidine uptake, No AGP (5% DMSO) (L1210 cells; 100 μM compound, no AGP, 5% DMSO, 100 µM): 63%
inhibition at 10 µM (L1210 cells; [9]): 52 ± 7%
inhibition at 100 µM (L1210 cells; [9]): 66%

CC(C)CCOc1nc(N2CCCCC2)c2nc(OCCC(C)C)nc(N3CCCCC3)c2n1 [NU3070, 2,6-Di-(3'-methylbutoxy)-4,8-dipiperidinopyrimidopyrimidine]
% Inhibition of 3H-thymidine uptake, No AGP (5% DMSO) (L1210 cells; 10 μM compound, no AGP, 5% DMSO, 10 µM): 51%
inhibition at 10 µM (L1210 cells; [9]): 46%

COc1ccc(CNc2nc(OCCCO)nc3c(NCc4ccc(OC)cc4)nc(OCCCO)nc23)cc1 [NU3097, 2,6-di(-3-hydroxypropoxy)-4,8-di(-4-methoxybenzylamino)pyrimidopyrimidine]
% Inhibition of 3H-thymidine uptake, No AGP (L1210 cells; 1 μM compound, no AGP, 1 µM): 62%
inhibition at 1 µM (L1210 cells; [5]): 21%
inhibition at 1 µM (L1210 cells; [6]): 49%
inhibition at 1 µM (L1210 cells; [7]): 61 ± 8%
IC50 (L1210 cells; Mus musculus, L1210, no AGP): 460 nM
IC50 (L1210 cells; no AGP): 820 nM

COCCOc1nc(N(C)Cc2ccccc2)c2nc(OCCOC)nc(N(C)Cc3ccccc3)c2n1 [NU3092, 2,6-Di(-2'-methoxyethoxy)-4,8-di[(N-benzylmethyl)amino]-pyrimidopyrimidine]
inhibition at 1 µM (L1210 cells; [7]): 17 ± 8%
inhibition at 10 µM (L1210 cells; [7]): 68 ± 8%
IC50 (L1210 cells; Mus musculus, L1210, no AGP): 5900 nM
IC50 (L1210 cells; no AGP): 3800 nM

CN(Cc1ccccc1)c1nc(OCCCO)nc2c(N(C)Cc3ccccc3)nc(OCCCO)nc12 [NU3088, 2,6-Di(3'-hydroxypropoxy)-4,8-di[(N-benzylmethyl)amino]pyrimidopyrimidine]
% Inhibition of 3H-thymidine uptake, No AGP (L1210 cells; 1 μM compound, no AGP): 52 ± 19%
% Inhibition of 3H-thymidine uptake, No AGP (L1210 cells; 10 μM compound, no AGP, 10 µM): 100% and 77%
IC50 (L1210 cells; no AGP): 1440 nM

CCOc1nc(N2CCCCC2)c2nc(OCC)nc(N3CCCCC3)c2n1 [NU3068, 2,6-Diethoxy-4,8-dipiperidinopyrimidopyrimidine]
% Inhibition of 3H-thymidine uptake, No AGP (5% DMSO) (L1210 cells; [8]): 65%
inhibition at 10 µM (L1210 cells; [9]): 35 ± 4%
inhibition at 50 µM (L1210 cells; Mus musculus, no AGP, 5% DMSO): 74%
